Reference: patent publication US11566007B2, “Ras inhibitors” (Revolution Medicines, Inc., priority 2019, dated 2023)
Values joined by “and” are separate entries in the source; they are usually repeats but may differ in a detail not shown here. Equal values may be shown once. Read-outs that look alike come from different tables or passages of the source.

Key:
[1] = molecular target: NRAS G12C (Homo sapiens (Human), UniProt P01111+P62937, G12C); test: Ras-Raf (BRAF RBD) disruption / FRET / MOA assay, NRAS G12C; format: biochemical; conditions: read-out: IC50* NRAS G12C FRET data
Chain of NRAS G12C (P01111 whole entry G12C): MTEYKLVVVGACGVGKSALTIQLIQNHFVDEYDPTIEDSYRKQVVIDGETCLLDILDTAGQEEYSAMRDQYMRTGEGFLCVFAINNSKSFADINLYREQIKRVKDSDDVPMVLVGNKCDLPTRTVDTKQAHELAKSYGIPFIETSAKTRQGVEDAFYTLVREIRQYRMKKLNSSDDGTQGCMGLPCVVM
Chain of NRAS G12C (P62937 whole entry): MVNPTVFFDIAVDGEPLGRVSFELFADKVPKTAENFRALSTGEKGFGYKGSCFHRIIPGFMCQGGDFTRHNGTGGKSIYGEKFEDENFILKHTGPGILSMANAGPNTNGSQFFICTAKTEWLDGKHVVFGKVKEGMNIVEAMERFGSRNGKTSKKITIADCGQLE
Procedure, shortened: (§1)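 Compounds, top final concentration 30 μM in 10-point 3-fold series, incubated 3 hours at 25° C with nucleotide-loaded Ras, cyclophilin A and BRAF RBD.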

[2] = tested on: NCI-H358 (K-Ras G12C); test: CellTiter-Glo cell viability assay, NCI-H358; format: cell-based, human; conditions: NCI-H358, 5-day treatment, class symbols, read-out: Additional H358 Cell Viability assay data (K-Ras G12C, IC50)
Procedure, shortened: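 Steps: compound dispensed into wells holding cells; incubation to day 5; ~30 min room-temperature equilibration; luminescence read; sample signal divided by mean DMSO signal, times 100; four-parameter logistic curve fit.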

[3] = molecular target: KRAS G13D (Homo sapiens (Human), UniProt P01116+P62937, G13D); test: Ras-Raf (BRAF RBD) disruption / FRET / MOA assay, KRAS G13D; format: biochemical; conditions: read-out: IC50* KRAS G13D FRET data
Chain of KRAS G13D (P01116-2 other isoform, or with tags, fused parts or gaps G13D): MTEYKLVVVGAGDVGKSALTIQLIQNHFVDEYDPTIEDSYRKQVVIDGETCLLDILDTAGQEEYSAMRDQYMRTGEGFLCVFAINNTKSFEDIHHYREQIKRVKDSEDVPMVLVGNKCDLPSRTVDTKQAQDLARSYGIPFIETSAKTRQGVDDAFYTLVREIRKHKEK
Chain of KRAS G13D (P62937 whole entry): as the sequence (P62937 whole entry) above
Procedure, shortened: as §1

[4] = molecular target: KRAS WT (Homo sapiens (Human), UniProt P01116+P62937); test: Ras-Raf (BRAF RBD) disruption / FRET / MOA assay, KRAS WT; format: biochemical; conditions: read-out: IC50* KRAS WT FRET data
Chain of KRAS WT (P01116-2 other isoform, or with tags, fused parts or gaps): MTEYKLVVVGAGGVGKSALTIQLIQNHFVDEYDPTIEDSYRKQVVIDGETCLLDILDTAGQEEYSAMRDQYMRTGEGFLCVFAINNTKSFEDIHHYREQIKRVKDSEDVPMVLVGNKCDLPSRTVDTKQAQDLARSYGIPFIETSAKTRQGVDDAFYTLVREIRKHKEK
Chain of KRAS WT (P62937 whole entry): as the sequence (P62937 whole entry) above
Procedure, shortened: as §1

[5] = tested on: NCI-H358 cells (K-Ras G12C); test: Potency assay: pERK in NCI-H358 cells; format: cell-based, human; conditions: Homo sapiens, NCI-H358; H358 KRAS G12C; read-out: pERK EC50
Procedure, shortened: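 Inhibition of cellular pERK after a 4 h treatment, detected by AlphaLISA or In-Cell Western. IC50 from a four-parameter concentration-response fit.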

[6] = molecular target: K-Ras G12C (Homo sapiens (Human), UniProt P01116+P62937, G12C); test: Ras-Raf (BRAF RBD) disruption / FRET / MOA assay, KRAS G12C; format: biochemical; conditions: KRAS G12C; Ras-Raf disruption/FRET/MOA assay; read-out: IC50* KRAS G12C FRET data
Chain of K-Ras G12C (P01116-2 other isoform, or with tags, fused parts or gaps G12C): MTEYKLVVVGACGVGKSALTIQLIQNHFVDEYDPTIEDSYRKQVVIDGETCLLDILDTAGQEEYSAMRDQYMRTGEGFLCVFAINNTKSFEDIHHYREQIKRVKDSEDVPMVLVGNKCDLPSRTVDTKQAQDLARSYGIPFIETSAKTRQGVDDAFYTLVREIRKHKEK
Chain of K-Ras G12C (P62937 whole entry): as the sequence (P62937 whole entry) above
Procedure, shortened: as §1

[7] = molecular target: K-Ras G13C (Homo sapiens (Human), UniProt P01116+P62937, G13C); test: Ras-Raf (BRAF RBD) disruption / FRET / MOA assay, KRAS G13C; format: biochemical; conditions: KRAS G13C; Ras-Raf disruption/FRET/MOA assay; read-out: IC50* KRAS G13C FRET data
Chain of K-Ras G13C (P01116-2 other isoform, or with tags, fused parts or gaps G13C): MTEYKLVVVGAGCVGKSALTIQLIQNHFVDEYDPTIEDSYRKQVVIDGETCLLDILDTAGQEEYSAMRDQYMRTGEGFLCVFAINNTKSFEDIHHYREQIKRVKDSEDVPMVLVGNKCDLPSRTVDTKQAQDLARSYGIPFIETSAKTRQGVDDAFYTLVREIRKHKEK
Chain of K-Ras G13C (P62937 whole entry): as the sequence (P62937 whole entry) above
Procedure, shortened: as §1

[8] = molecular target: KRAS G12D (Homo sapiens (Human), UniProt P01116+P62937, G12D); test: Ras-Raf (BRAF RBD) disruption / FRET / MOA assay, KRAS G12D; format: biochemical; conditions: Ras-Raf disruption/FRET/MOA assay; class symbols; read-out: KRAS G12D FRET data IC50
Chain of KRAS G12D (P01116-2 other isoform, or with tags, fused parts or gaps G12D): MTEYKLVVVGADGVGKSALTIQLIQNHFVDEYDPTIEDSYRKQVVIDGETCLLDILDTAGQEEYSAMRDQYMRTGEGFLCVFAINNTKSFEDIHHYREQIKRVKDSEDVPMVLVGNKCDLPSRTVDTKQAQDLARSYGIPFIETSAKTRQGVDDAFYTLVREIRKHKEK
Chain of KRAS G12D (P62937 whole entry): as the sequence (P62937 whole entry) above
Procedure, shortened: as §1

[9] = molecular target: KRAS G12V (Homo sapiens (Human), UniProt P01116+P62937, G12V); test: Ras-Raf (BRAF RBD) disruption / FRET / MOA assay, KRAS G12V; format: biochemical; conditions: read-out: IC50* KRAS G12V FRET data
Chain of KRAS G12V (P01116-2 other isoform, or with tags, fused parts or gaps G12V): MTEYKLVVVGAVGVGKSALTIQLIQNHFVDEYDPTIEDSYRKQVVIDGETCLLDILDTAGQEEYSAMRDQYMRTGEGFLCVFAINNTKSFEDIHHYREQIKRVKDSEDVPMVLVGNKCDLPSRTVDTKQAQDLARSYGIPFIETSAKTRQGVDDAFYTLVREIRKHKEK
Chain of KRAS G12V (P62937 whole entry): as the sequence (P62937 whole entry) above
Procedure, shortened: as §1

[10] = molecular target: KRAS G12S (Homo sapiens (Human), UniProt P01116+P62937, G12S); test: Ras-Raf (BRAF RBD) disruption / FRET / MOA assay, KRAS G12S; format: biochemical; conditions: Ras-Raf disruption/FRET/MOA assay; class symbols; read-out: KRAS G12S FRET data IC50
Chain of KRAS G12S (P01116-2 other isoform, or with tags, fused parts or gaps G12S): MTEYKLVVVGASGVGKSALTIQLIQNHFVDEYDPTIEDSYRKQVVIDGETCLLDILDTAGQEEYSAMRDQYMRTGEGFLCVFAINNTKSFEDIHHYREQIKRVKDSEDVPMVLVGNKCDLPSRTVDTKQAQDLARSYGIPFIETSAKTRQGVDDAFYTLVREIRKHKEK
Chain of KRAS G12S (P62937 whole entry): as the sequence (P62937 whole entry) above
Procedure, shortened: as §1

Row | SMILES | IC50 [1] | IC50 ([2]; Homo sapiens, NCI-H358, 120 h) [µM] | IC50 [3] | IC50 [4] | EC50 [5] [µM] | IC50 [6] | IC50 [7] | IC50 [8] | IC50 [9] | IC50 [10] | IC50 [2] [µM]
1 | CCn1c(-c2cccnc2[C@H](C)OC)c2c3cc(ccc31)-c1cccc(c1)C[C@H](NC(=O)[C@H](C(C)C)N(C)C(=O)[C@H]1CCN(C(=O)C#CC3(N(C)C)CCOC3)C1)C(=O)N1CCC[C@H](N1)C(=O)OCC(C)(C)C2 (some centres unmarked) [Example A533] | 0.01 to 0.1 µM | < 0.01 | > 10 µM | 1 to 10 µM | < 5 | 0.01 to 0.1 µM | 1 to 10 µM | > 10 µM | 1 to 10 µM | 1 to 10 µM | –
2 | C=CC(=O)N1CC[C@H](C(=O)N(C)[C@H](C(=O)N[C@H]2Cc3cc(O)cc(c3)-c3ccc4c(c3)c(c(-c3cnccc3[C@H](C)OC)n4CC)CC(C)(C)COC(=O)[C@@H]3CCCN(N3)C2=O)C(C)C)C1 [Example A112] | 0.1 to 1 µM | 0.01 to 0.1 | 1 to 10 µM | 1 to 10 µM | < 5 | 0.1 to 1 µM | 1 to 10 µM | > 10 µM | 1 to 10 µM | 1 to 10 µM | –
3 | C=CC(=O)N1CC[C@H](C(=O)N(C)[C@H](C(=O)N[C@H]2Cc3cccc(c3)-c3ccc4c(c3)c(c(-c3cc(C5=CCN(C)CC5)cnc3[C@H](C)OC)n4CC)CC(C)(C)COC(=O)[C@@H]3CCCN(N3)C2=O)C(C)C)C1 (atropisomer, axis not shown) [Example A513] | 0.01 to 0.1 µM | – | 1 to 10 µM | 1 to 10 µM | < 5 | 0.01 to 0.1 µM | 0.1 to 1 µM | 1 to 10 µM | 1 to 10 µM | 1 to 10 µM | < 0.01
4 | CCn1c(-c2cccnc2[C@H](C)OC)c2c3cc(ccc31)-c1cccc(c1)C[C@H](NC(=O)[C@H](C(C)C)N(C)C(=O)[C@H]1CCN(C(=O)C#C[C@@H]3COCCN3C)C1)C(=O)N1CCC[C@H](N1)C(=O)OCC(C)(C)C2 [Example A528] | 0.01 to 0.1 µM | < 0.01 | > 10 µM | 1 to 10 µM | < 5 | 0.01 to 0.1 µM | 1 to 10 µM | > 10 µM | 1 to 10 µM | 1 to 10 µM | –
5 | C#CCn1c(-c2cccnc2[C@H](C)OC)c2c3cc(ccc31)-c1cccc(c1)C[C@H](NC(=O)[C@H](C(C)C)N(C)C(=O)[C@H]1CCN(C(=O)C=C)C1)C(=O)N1CCC[C@H](N1)C(=O)OCC(C)(C)C2 (atropisomer, axis not shown) [Example A530] | 0.1 to 1 µM | 0.01 to 0.1 | > 10 µM | 1 to 10 µM | < 5 | 0.1 to 1 µM | 1 to 10 µM | > 10 µM | 1 to 10 µM | 1 to 10 µM | –
6 | CCn1c(-c2cccnc2COC)c2c3cc(ccc31)-c1cc(O)cc(c1)C[C@H](NC(=O)[C@H](C(C)C)N(C)C(=O)[C@H]1CCN(C(=O)C#CCOC)C1)C(=O)N1CCC[C@H](N1)C(=O)OCC(C)(C)C2 (atropisomer, axis not shown) [Example A135] | 0.01 to 0.1 µM and < 0.01 µM | 0.01 to 0.1 | 1 to 10 µM and > 10 µM | 1 to 10 µM and > 10 µM | < 5 | 0.01 to 0.1 µM and < 0.01 µM | 0.01 to 0.1 µM and 0.1 to 1 µM | 1 to 10 µM and > 10 µM | 0.1 to 1 µM and 1 to 10 µM | 0.1 to 1 µM and 1 to 10 µM | –
7 | CCn1c(-c2cccnc2[C@H](C)OC)c2c3cc(ccc31)-c1cc(O)cc(c1)C[C@H](NC(=O)[C@H](C(C)C)N(C)C(=O)[C@H]1CCN(C(=O)C#CCN3[C@H](C)COC[C@@H]3C)C1)C(=O)N1CCC[C@H](N1)C(=O)OCC(C)(C)C2 (atropisomer, axis not shown) [Example A245] | < 0.01 µM | < 0.01 | 0.1 to 1 µM | 0.1 to 1 µM | < 5 | < 0.01 µM | 0.01 to 0.1 µM | 1 to 10 µM | 0.01 to 0.1 µM | 0.1 to 1 µM | –
8 | C=CC(=O)N1C[C@@H](C(=O)N(C)[C@@H](C(=O)N[C@H]2Cc3cc(O)cc(c3)-c3ccc4c(c3)c(c(-c3cccnc3COC)n4CC)CC(C)(C)COC(=O)[C@@H]3CCCN(N3)C2=O)C(C)C)C[C@H]1C [Example A159] | 0.1 to 1 µM | 0.1 to 1 | 1 to 10 µM | 1 to 10 µM | < 5 | 0.1 to 1 µM | > 10 µM | > 10 µM | 1 to 10 µM | 1 to 10 µM | –
9 | C=CC(=O)N(C)CCC(=O)N(C)[C@H](C(=O)N[C@H]1Cc2cc(O)cc(c2)-c2ccc3c(c2)c(c(-c2cccnc2COC)n3CC)CC(C)(C)COC(=O)[C@@H]2CCCN(N2)C1=O)C(C)C [Example A117] | 0.1 to 1 µM | 0.1 to 1 | 1 to 10 µM | 1 to 10 µM | < 5 | 0.1 to 1 µM | 0.1 to 1 µM | > 10 µM | 1 to 10 µM | 1 to 10 µM | –
10 | C=CC(=O)N1CC2CCC1CN2C(=O)N(C)[C@H](C(=O)N[C@H]1Cc2nc(cs2)-c2ccc3c(c2)c(c(-c2cccnc2[C@H](C)OC)n3CC)CC(C)(C)COC(=O)[C@@H]2CCCN(N2)C1=O)C(C)C [Example A420] | 0.1 to 1 µM | 0.01 to 0.1 | 1 to 10 µM | 0.1 to 1 µM | < 5 | 0.1 to 1 µM | 0.1 to 1 µM | 1 to 10 µM | 0.1 to 1 µM | 0.1 to 1 µM | –
11 | C=CC(=O)N1CC(OCC(C(=O)N[C@H]2Cc3nc(cs3)-c3ccc4c(c3)c(c(-c3cccnc3[C@H](C)OC)n4CC)CC(C)(C)COC(=O)[C@@H]3CCCN(N3)C2=O)C(C)C)C1 (mixture of isomers) [Example A473] | 0.1 to 1 µM | 0.01 to 0.1 | 1 to 10 µM | 1 to 10 µM | < 5 | 0.1 to 1 µM | 1 to 10 µM | > 10 µM | 1 to 10 µM | 1 to 10 µM | –
